≈ marks a conversion by molar mass, not a printed value.

This note sets out measurements from ChEMBL document CHEMBL4808200, “Identification of a Series of N-Methylpyridine-2-carboxamides as Potent and Selective Inhibitors of the Second Bromodomain (BD2) of the Bromo and Extra Terminal Domain (BET) Proteins” (J Med Chem, 2021).

The nature of series [1]: Solubility of the compound in pH 6.5 FaSSIF at […] measured after 16 hrs by HPLC analysis. It is filed as physicochemical.
Series [2] can be described thus: Permeability of the compound at pH 7.4 by artificial membrane permeability assay. It is filed as ADME. Conditions: PAMPA, read-out: permeability.
The nature of series [3]: Intrinsic clearance in Wistar Han rat cryopreserved pooled hepatocytes at 0.5 uM measured up to 60 mins by LC-MS/MS analysis. It is filed as ADME, tissue-based, Hepatocyte. To be noted: 1 h.
A short description of series [4]: Intrinsic clearance in Beagle dog cryopreserved pooled hepatocytes at 0.5 uM measured up to 120 mins by LC-MS/MS analysis. It is filed as ADME, tissue-based, Canis lupus familiaris, Hepatocyte. To be noted: 2 h.
The nature of series [5]: Intrinsic clearance in human cryopreserved pooled hepatocytes at 0.5 uM measured up to 120 mins by LC-MS/MS analysis. Format: ADME, tissue-based, Hepatocyte. To be noted: 2 h.
Series [6] is described as follows: Clearance in Wistar Han rat at 1 mg/kg, iv administered as 1 hr infusion or 3 mg/kg, po administered via gavage by LC-MS/MS analysis. Conditions: in vivo. Format: ADME, organism-based.
Series [7] can be described thus: Clearance in Beagle dog at 0.5 mg/kg, iv administered as 1 hr infusion on day 1 and day 7 to achieve a target dose of 1 mg/kg by LC-MS/MS analysis. Format: ADME, organism-based, Canis lupus familiaris. To be noted: in vivo, dose 0.5-1 mg/kg, time 7 day.
A short description of series [8]: Volume of distribution at steady state in Wistar Han rat at 1 mg/kg, iv administered as 1 hr infusion or 3 mg/kg, po administered via gavage by LC-MS/MS analysis. Format: ADME, organism-based. Conditions: in vivo, read-out: Vdss.
The nature of series [9]: Volume of distribution at steady state in Beagle dog at 0.5 mg/kg, iv administered as 1 hr infusion on day 1 and day 7 to achieve a target dose of 1 mg/kg by LC-MS/MS analysis. Conditions: in vivo, dose 0.5-1 mg/kg, time 7 day, read-out: Vdss. Format: ADME, organism-based, Canis lupus familiaris.
Series [10] in a line: Oral bioavailability in Wistar Han rat at 3 mg/kg administered via gavage by LC-MS/MS analysis. It is filed as ADME, organism-based. Conditions: in vivo.
Series [11] is described as follows: Oral bioavailability in Beagle dog. It is filed as ADME, organism-based, Canis lupus familiaris. Conditions: in vivo.
A short description of series [12]: Unbound clearance in Wistar Han rat at 1 mg/kg, iv administered as 1 hr infusion or 3 mg/kg, po administered via gavage by LC-MS/MS analysis. Conditions: in vivo. It is filed as ADME, organism-based.
Series [13] in a line: Unbound clearance in Beagle dog at 0.5 mg/kg, iv administered as 1 hr infusion on day 1 and day 7 to achieve a target dose of 1 mg/kg by LC-MS/MS analysis. It is filed as ADME, organism-based, Canis lupus familiaris. To be noted: in vivo, 168 h, dose 0.5-1 mg/kg, time 7 day.
Series [14] in a line: Half life in Wistar Han rat at 1 mg/kg, iv administered as 1 hr infusion or 3 mg/kg, po administered via gavage by LC-MS/MS analysis. Format: ADME, organism-based. Conditions: in vivo.
Series [15] is described as follows: Half life in Beagle dog at 0.5 mg/kg, iv administered as 1 hr infusion on day 1 and day 7 to achieve a target dose of 1 mg/kg by LC-MS/MS analysis. Format: ADME, organism-based, Canis lupus familiaris. Conditions: in vivo, dose 0.5-1 mg/kg, time 7 day.
Series [16] is described as follows: physchem. Conditions: buffer, pH 7.4.
Series [17] is described as follows: Clearance in Beagle dog at 0.5 mg/kg, iv administered as 1 hr infusion on day 1 and day 7 to achieve a target dose of 1 mg/kg by LC-MS/MS analysis relative to liver blood flow. Format: ADME, organism-based, Canis lupus familiaris. Conditions: in vivo, 168 h, dose 0.5-1 mg/kg, time 7 day.

`CNC(=O)c1cc(C(=O)N[C@H]2[C@@H]3COC[C@@H]32)cc(C(OC)c2ccccc2)n1` (some centres not stated): in series [1], the concentration in solution (solubility at 16 h) was 575 µg/mL (≈ 1510 µM). In addition, in [2], the Papp was determined as 14.5 ×10⁻⁶ cm/s. The CLH in series [3] is 1.27 mL/min/g; in series [4], below 0.65 mL/min/g; in series [5], below 0.45 mL/min/g. For the same compound, the clearance in [6] amounted to 52 mL/min/kg; in series [7], 9.4 mL/min/kg. Besides, the Vd worked out at 2.1 L/kg in series [8] and 0.9 L/kg in [9]. Also, the bioavailability is 17% in [10] and 65% in [11]. For the same compound, the CL free in series [12] is 142 mL/min/kg; in series [13] it was 23 mL/min/kg. Moreover, the half-life in [14] was 90 min; in series [15], 72 min. In [16], this compound gave a chromatographic logD of 3.4.
Regarding `CNC(=O)c1cc(C(=O)N[C@H]2[C@@H]3COC[C@@H]32)cc(Cc2cccc3[nH]ccc23)n1`, the concentration in solution in series [1] (solubility at 16 h) came to 91 µg/mL (≈ 233 µM). Also, in series [2], the Papp came out at 16 ×10⁻⁶ cm/s. In addition, the figures for the CLH in series [3], in series [4] and in series [5] were 2.05 mL/min/g, below 0.65 mL/min/g and below 0.45 mL/min/g, respectively. Besides, the clearance in series [6] stood at 39 mL/min/kg; in series [7], 4 mL/min/kg. Further, the Vd is 1.8 L/kg in series [8] and 0.9 L/kg in series [9]. For the same compound, the bioavailability is 69% in series [10] and 41% in [11]. Moreover, the CL free in [12] came to 206 mL/min/kg; in series [13], 19 mL/min/kg. Besides, the values for the half-life in series [14] and in [15] were 42 min and 150 min, respectively. This compound gave a chromatographic logD in series [16] of 3.1.
In turn, `CNC(=O)c1cc(C(=O)N[C@H]2C[C@@H]2C)cc(Cc2cccc3[nH]ccc23)n1` had a solubility at 16 h in series [1] of 127 µg/mL (≈ 350 µM). Also, the Papp in series [2] stood at 18.3 ×10⁻⁶ cm/s. Besides, the results for the CLH in [3], in series [4] and in series [5] were 1.06 mL/min/g, below 0.65 mL/min/g and below 0.45 mL/min/g, respectively. Further, the clearance in [6] was 18 mL/min/kg; in [7] it was 13 mL/min/kg. Moreover, the Vd was 1.2 L/kg in series [8] and 1.6 L/kg in series [9]. In addition, the bioavailability amounted to 48% in series [10] and 55% in [11]. The CL free in series [12] came out at 69 mL/min/kg; in series [13] it was 88 mL/min/kg. Moreover, the half-life in [14] was 72 min; in series [15], 132 min. In addition, the chromatographic logD in [16] was 3.
For `CNC(=O)c1cc(C(=O)N[C@H]2[C@@H]3COC[C@@H]32)cc(Cc2ccccc2)n1`, the solubility at 16 h in [1] was found to be 112 µg/mL (≈ 319 µM). For the same compound, in series [2], the Papp came to 21.5 ×10⁻⁶ cm/s. Besides, the CLH is 1.4 mL/min/g in series [3], 0.76 mL/min/g in [4] and below 0.45 mL/min/g in series [5]. Also, the clearance came out at 22 mL/min/kg in series [6] and 43 mL/min/kg in series [7]. In addition, the Vd in series [8] is 1.7 L/kg; in [9] it was 1.4 L/kg. Moreover, the results for the bioavailability in series [10] and in series [11] were 62% and 10%, respectively. For the same compound, the CL free in series [12] amounted to 168 mL/min/kg; in [13], 122 mL/min/kg. Also, the half-life in [14] is 18 min; in [15] it was 24 min. Besides, the QH in series [17] is reported as 80%. In series [16], the chromatographic logD turned out to be 3.5.
`CNC(=O)c1cc(C(=O)N[C@H]2C[C@@H]2C)cc([C@@H](O)c2ccccc2)n1` had a solubility at 16 h in [1] above 1000 µg/mL. Besides, the Papp in series [2] worked out at 18.3 ×10⁻⁶ cm/s. Further, the CLH in [3] is below 0.8 mL/min/g; in series [4], 0.81 mL/min/g; in series [5], 0.8 mL/min/g. The values for the clearance in series [6] and in series [7] were 29 mL/min/kg and 32 mL/min/kg, respectively. The Vd in [8] was 2.2 L/kg; in series [9], 2.1 L/kg. The figures for the bioavailability in series [10] and in [11] were 34% and 35%, respectively. The CL free in series [12] amounted to 96 mL/min/kg; in [13], 102 mL/min/kg. For the same compound, the half-life was 120 min in [14] and 36 min in series [15]. For the same compound, in series [16], the chromatographic logD was determined as 3.2.
In series [1], `CNC(=O)c1cc(C(=O)N[C@H]2[C@@H]3COC[C@@H]32)cc([C@@H](C)c2ccccc2)n1` returned a solubility at 16 h of 117 µg/mL (≈ 320 µM). Moreover, in series [2], the Papp is 37 ×10⁻⁶ cm/s. In addition, the CLH in series [3] was 2.03 mL/min/g; in series [4] it was below 0.65 mL/min/g; in series [5], below 0.45 mL/min/g. In addition, the figures for the clearance in [6] and in series [7] were 52 mL/min/kg and 44 mL/min/kg, respectively. Besides, the Vd amounted to 1.7 L/kg in [8] and 1.3 L/kg in series [9]. Also, the values for the bioavailability in series [10] and in series [11] were 39% and 14%, respectively. Moreover, the results for the CL free in [12] and in series [13] were 147 mL/min/kg and 171 mL/min/kg, respectively. For the same compound, the half-life in series [14] and in [15] was 24 min throughout. Moreover, the chromatographic logD in [16] came to 4.1.
